In ChEMBL document CHEMBL1201862, “PubChem BioAssay data set” (2004):
Active and inactive are the calls of the source.

Legend:
[1] = molecular target: T1, Trace amine-associated receptor 1 (Homo sapiens, UniProt Q96RJ0); experiment: Fluorescence-based cell-based high throughput dose response assay to identify agonists of the human trace amine associated receptor 1 (TAAR1).; type: functional
T1 sequence (Q96RJ0 whole entry): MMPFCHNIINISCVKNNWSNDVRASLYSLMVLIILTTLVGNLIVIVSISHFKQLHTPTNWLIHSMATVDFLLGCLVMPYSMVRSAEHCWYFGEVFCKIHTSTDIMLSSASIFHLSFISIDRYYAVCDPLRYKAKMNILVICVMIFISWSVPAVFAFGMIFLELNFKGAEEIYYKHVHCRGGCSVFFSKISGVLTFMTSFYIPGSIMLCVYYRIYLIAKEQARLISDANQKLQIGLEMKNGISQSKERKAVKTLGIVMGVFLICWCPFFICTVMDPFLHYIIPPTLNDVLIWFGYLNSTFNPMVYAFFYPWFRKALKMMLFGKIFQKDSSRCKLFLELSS

[2] = cells; type: functional, cell-based
[3] = molecular target: T1, Trace amine-associated receptor 1; experiment: Counterscreen for agonists of the human trace amine associated receptor 1 (hTAAR1): Fluorescence-based cell-based high throughput dose response assay to identify hTAAR1 agonist that also desensitize TAAR1 receptor response.; type: functional
[4] = cells; type: functional, cell-based; remark: listed apart in the source
[5] = molecular target: T2, Corticotropin-releasing factor receptor 2/Corticotropin-releasing factor-binding protein (Homo sapiens, UniProt P24387+Q13324); experiment: activators of CRF receptor 2 with binding protein – uHTS hits, confirmation (AID 602473); type: functional; settings: read-out: EC50_Mean
T2 sequence (Q13324 whole entry): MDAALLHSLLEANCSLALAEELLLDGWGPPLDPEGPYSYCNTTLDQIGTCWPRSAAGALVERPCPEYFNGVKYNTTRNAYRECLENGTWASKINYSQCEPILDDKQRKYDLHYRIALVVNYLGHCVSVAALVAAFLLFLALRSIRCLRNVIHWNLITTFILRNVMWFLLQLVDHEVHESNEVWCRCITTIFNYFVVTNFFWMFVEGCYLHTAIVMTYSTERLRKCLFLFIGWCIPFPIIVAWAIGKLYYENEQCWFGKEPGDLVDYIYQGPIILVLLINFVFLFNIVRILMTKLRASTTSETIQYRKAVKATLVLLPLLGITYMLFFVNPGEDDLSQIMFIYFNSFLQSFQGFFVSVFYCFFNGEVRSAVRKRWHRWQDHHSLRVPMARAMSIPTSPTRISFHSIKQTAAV
T2 sequence (P24387 whole entry): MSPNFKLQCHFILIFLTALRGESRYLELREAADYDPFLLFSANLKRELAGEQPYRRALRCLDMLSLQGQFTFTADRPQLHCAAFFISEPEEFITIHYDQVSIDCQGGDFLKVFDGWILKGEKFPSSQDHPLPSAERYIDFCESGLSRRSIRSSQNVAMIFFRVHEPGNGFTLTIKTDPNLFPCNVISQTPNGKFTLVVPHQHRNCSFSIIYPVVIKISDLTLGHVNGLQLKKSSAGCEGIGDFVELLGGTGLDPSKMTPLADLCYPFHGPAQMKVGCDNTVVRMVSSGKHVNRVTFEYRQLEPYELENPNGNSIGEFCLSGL

[6] = molecular target: T3, Nuclear receptor subfamily 0 group B member 1 (Homo sapiens, UniProt P51843); type: functional, cell-based;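 also: HEK293T cells transfected with SF-1 and DAX-1 plus StAR promoter luciferase reporter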
T3 sequence (P51843 whole entry): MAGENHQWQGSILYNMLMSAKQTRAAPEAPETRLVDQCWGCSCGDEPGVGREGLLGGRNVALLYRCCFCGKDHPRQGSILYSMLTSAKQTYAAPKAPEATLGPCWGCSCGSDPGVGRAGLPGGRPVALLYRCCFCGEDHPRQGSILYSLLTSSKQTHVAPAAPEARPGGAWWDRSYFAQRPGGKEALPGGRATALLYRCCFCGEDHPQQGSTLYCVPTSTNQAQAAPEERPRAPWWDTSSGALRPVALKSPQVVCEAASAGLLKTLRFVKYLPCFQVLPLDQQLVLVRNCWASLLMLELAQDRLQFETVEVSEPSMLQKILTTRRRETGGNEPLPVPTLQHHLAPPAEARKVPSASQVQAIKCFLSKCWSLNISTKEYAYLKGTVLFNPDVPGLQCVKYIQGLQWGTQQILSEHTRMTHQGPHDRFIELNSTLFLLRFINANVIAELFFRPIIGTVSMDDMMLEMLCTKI

[7] = molecular target: T2, Corticotropin-releasing factor receptor 2/Corticotropin-releasing factor-binding protein; experiment: Dose Response confirmation of uHTS hits for small molecule antagonists of the CRF-binding protein and CRF-R2 receptor complex.; type: functional; settings: read-out: IC50_Mean
[8] = cells; type: functional, cell-based; remark: listed apart in the source
[9] = molecular target: fMet-Leu-Phe receptor (Homo sapiens, UniProt P21462); experiment: FPR ligands, dose response (AID 519); type: functional
Chain of fMet-Leu-Phe receptor (P21462 whole entry): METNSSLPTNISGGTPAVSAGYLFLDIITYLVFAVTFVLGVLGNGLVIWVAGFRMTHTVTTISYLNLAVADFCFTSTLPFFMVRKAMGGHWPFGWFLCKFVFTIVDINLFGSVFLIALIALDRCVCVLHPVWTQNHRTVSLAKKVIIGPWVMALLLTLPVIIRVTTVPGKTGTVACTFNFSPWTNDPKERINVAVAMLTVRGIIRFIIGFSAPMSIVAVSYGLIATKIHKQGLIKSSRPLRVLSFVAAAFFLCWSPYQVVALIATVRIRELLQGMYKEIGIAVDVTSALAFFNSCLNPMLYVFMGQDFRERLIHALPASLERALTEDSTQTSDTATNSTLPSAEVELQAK

[10] = molecular target: Albumin (Bos taurus, UniProt P02769); experiment: Counterscreen for inhibitors of T-cell receptor (TCR)-CD3 interaction: Fluorescence-based biochemical high throughput dose response assay to identify inhibitors of T-cell receptor (TCR)-CD3 interaction using a TAMRA-labeled BSA probe.; type: functional
Chain of Albumin (P02769 whole entry): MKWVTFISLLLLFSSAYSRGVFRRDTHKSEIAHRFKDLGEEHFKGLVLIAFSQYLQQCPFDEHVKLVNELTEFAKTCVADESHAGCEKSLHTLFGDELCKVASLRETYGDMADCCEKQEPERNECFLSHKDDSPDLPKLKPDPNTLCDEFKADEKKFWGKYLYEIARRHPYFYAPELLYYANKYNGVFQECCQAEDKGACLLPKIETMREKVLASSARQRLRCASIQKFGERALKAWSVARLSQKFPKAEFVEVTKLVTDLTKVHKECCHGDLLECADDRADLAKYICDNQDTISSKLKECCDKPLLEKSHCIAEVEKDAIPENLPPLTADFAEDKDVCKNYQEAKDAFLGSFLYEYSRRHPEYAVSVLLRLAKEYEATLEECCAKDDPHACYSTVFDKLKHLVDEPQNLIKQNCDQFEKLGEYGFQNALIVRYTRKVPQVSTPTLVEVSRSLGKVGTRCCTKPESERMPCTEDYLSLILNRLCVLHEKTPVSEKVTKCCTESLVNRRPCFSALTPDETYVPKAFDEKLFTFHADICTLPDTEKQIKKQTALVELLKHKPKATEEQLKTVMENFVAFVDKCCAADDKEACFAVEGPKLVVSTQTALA

[11] = molecular target: NS3 (Hepatitis C virus, UniProt A3EZJ3); experiment: PubChem AID 2173; design: species or system Hepacivirus hominis
Chain of NS3 (A3EZJ3 whole entry): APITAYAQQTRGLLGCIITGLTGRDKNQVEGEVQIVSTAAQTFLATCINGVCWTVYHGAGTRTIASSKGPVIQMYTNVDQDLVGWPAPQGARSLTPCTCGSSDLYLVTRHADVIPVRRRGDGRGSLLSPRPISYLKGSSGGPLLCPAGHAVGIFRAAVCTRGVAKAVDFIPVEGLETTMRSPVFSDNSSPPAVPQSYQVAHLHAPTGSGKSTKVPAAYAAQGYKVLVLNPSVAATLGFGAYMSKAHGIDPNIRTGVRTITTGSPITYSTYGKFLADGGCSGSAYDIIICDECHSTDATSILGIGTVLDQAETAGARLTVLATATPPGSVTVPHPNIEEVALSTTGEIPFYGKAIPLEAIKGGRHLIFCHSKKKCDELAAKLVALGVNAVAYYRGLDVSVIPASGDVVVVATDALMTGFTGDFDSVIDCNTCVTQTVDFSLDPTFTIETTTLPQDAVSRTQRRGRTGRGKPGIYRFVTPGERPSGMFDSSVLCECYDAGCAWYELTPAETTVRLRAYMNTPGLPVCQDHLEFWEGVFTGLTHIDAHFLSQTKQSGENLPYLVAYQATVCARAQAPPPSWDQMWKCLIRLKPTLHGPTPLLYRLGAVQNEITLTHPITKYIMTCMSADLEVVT

[12] = molecular target: Induced myeloid leukemia cell differentiation protein Mcl-1 (Homo sapiens, UniProt Q07820); type: functional
Chain of Induced myeloid leukemia cell differentiation protein Mcl-1 (Q07820 whole entry): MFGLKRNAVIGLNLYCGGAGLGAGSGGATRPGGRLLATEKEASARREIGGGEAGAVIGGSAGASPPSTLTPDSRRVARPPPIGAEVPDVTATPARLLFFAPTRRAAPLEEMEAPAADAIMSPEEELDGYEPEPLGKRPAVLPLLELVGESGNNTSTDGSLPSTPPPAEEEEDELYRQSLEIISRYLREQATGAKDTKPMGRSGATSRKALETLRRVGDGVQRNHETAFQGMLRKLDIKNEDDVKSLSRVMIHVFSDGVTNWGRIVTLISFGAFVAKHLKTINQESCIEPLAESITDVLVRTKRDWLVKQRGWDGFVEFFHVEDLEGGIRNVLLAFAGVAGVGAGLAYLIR

[13] = miR-122 activators in hepatoma reporter cells, dose response, cell-based, Huh7 psiCHECK-miR122, Renilla luciferase, cherry-picked (AID 651956); type: functional;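 also: huh7 hepatoma cells stably carrying a psiCHECK-2 miR-122 sensor plasmid; renilla luciferase signal reporting endogenous miR-122 activity after 48 h compound exposure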
[14] = control 3'UTR Renilla luciferase suppression, dose response, counter-screen for Shn3 inhibitor project, cell-based, Clone20-Shn3RL, cherry-picked (AID 624133); type: functional
[15] = test system: HEK293; experiment: inhibitors of LMP1-driven NF-kB reporter, dose response, cell-based, HEK293, luciferase, cherry-pick (AID 588343); type: functional; settings: Homo sapiens
[16] = HepG2 cell cytotoxicity, dose response, cytotoxicity control for Shn3 inhibitor project, CellTiter-Glo, cherry-picked (AID 624134); type: functional, cell-based
[17] = HEK293T cytotoxicity, dose response, cytotoxicity control for miR-122 modulator project, cell-based, activator set, cherry-pick (AID 720690); type: functional;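 also: HEK293T human cells scored for general mammalian cytotoxicity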
[18] = HEK293T cytotoxicity, dose response, cytotoxicity control for miR-122 modulator project, cell-based, inhibitor set, cherry-pick, set 2 (AID 720697); type: functional
[19] = Shn3 3'UTR reporter inhibitors, dose response, cell-based, Clone20 osteoblasts, firefly luciferase, cherry-picked (AID 624132); type: functional;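 also: firefly luciferase luminescence from reporter carrying the Shn3 3'UTR in osteoblasts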
[20] = inhibitors of PGC1a acetylation in cells, dose response, cell-based, cherry-picked samples (AID 720514); type: functional;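 also: potency may reflect raised or lowered acetylation signal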
[21] = ADAM10 inhibitors, peptide cleavage, dose response, biochemical, QFRET (AID 743254);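 also: ADAM10 enzyme with the DM2 quenched FRET peptide as substrate; EDANS fluorescence gain as the protease cuts the substrate; inhibitor potency against ADAM10 proteolytic activity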
[22] = molecular target: Disintegrin and metalloproteinase domain-containing protein 17 (Homo sapiens, UniProt P78536); experiment: ADAM17 protease inhibitors, dose response, counter-screen for ADAM10 exosite inhibitor project, biochemical, quenched FRET substrate (AID 743253)
Chain of Disintegrin and metalloproteinase domain-containing protein 17 (P78536 whole entry, the tested form may be a part): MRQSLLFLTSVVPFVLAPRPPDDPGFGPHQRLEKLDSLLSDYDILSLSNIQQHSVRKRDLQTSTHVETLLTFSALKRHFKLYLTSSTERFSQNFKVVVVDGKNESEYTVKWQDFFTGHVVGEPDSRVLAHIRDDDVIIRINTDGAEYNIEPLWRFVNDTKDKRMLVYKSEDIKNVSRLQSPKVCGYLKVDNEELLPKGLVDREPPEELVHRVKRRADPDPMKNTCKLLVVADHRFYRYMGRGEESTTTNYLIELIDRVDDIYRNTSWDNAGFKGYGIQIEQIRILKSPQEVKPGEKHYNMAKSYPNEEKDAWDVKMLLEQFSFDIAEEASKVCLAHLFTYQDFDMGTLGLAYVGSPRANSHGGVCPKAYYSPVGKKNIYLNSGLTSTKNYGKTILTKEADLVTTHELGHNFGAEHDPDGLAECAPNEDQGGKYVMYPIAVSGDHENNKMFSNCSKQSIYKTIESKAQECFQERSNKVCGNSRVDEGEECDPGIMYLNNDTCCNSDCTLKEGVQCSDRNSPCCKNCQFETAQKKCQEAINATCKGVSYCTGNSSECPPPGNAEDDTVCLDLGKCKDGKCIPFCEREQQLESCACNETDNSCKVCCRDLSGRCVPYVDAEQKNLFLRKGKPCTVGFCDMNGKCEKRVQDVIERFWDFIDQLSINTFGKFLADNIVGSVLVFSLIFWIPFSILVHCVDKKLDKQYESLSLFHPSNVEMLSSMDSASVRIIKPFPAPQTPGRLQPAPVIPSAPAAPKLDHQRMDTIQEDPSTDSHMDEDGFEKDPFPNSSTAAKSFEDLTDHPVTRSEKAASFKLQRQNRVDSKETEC

[23] = molecular target: Paired box protein Pax-8 (Homo sapiens, UniProt Q06710); experiment: inhibitors of PAX8-driven TPO luciferase reporter, dose response, RMG-I cells, cherry-pick (AID 687027); type: functional, cell-based;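 also: luciferase reporter driven by Pax8 target thyroperoxidase promoter measured by SteadyGlo luminescence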
Chain of Paired box protein Pax-8 (Q06710 whole entry): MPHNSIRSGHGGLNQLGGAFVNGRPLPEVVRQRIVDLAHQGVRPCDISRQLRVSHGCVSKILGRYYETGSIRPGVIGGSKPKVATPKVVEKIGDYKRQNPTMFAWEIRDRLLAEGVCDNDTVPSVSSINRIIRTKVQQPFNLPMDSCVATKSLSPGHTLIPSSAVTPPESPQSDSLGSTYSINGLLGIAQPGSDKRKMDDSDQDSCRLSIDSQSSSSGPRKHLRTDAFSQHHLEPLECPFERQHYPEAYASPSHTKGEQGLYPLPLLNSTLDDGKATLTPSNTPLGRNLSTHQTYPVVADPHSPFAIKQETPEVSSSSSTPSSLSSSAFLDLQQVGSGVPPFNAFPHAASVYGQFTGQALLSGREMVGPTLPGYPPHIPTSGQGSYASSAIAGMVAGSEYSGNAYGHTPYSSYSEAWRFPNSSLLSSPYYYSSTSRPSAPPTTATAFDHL

In the case of CN1C(=O)C(=CN2CCN(C(=O)c3ccco3)CC2)C(=O)N(C)C1=S, the EC50 [1] is reported as 4.85 µM (active), the IC50 [2] is reported as > 29.9 µM (inactive) and the IC50 [3] is reported as > 29.9 µM (inactive). For the same compound, the EC50 [4] was > 29.9 µM (inactive).

For Cn1ccc(C(=O)Nc2sc3c(c2C(N)=O)CCCCC3)n1, the EC50 [5] was > 53 µM (inactive), the IC50 [6] was > 2.5 µM (active) and the IC50 [7] was > 47.1 µM (inactive). For the same compound, the IC50 [8] was > 67.5 µM (inactive).

In the case of O=C(C1=C(O)C(=O)N(CCOCCO)C1c1cccs1)c1cccs1 (stereo unspecified), the Ki [9] is reported as 21.4 µM (inactive).

In the case of Nc1c(C(=O)NCC2CCCO2)sc2nc3c(c(-c4ccco4)c12)CC/C3=C\c1ccco1 (stereo unspecified), the IC50 [10] is reported as > 94.1 µM (inactive), the IC50 [11] is reported as 3.91 µM (active) and the IC50 [12] is reported as 1.22 µM (active).

With COc1ccccc1CC(=O)NCCc1ccccc1 the EC50 [1] was 3.18 µM (active), the IC50 [2] was > 29.9 µM (inactive) and the IC50 [3] was 9 µM (active). For the same compound, the EC50 [4] was > 29.9 µM (inactive).

With CCN1CCN(Cc2ccc(NC(=O)c3ccc(C)c(NC(=O)c4cnc5cc(C(F)(F)F)ccc5c4O)c3)cc2C(F)(F)F)CC1 the AC50 [13] was 5.11 µM (active), the AC50 [14] was 6.23 µM (active) and the AC50 [15] was 2.74 µM (active). The AC50 [16] was 5.71 µM (active), the AC50 [17] was 4.48 µM (active) and the AC50 [18] was 4.86 µM (active). The AC50 [19] was 3.13 µM (active) and the AC50 [20] was 5.48 µM (active).

For CC(O)(c1cccc(F)c1)c1nc(/C=C/c2ccccc2)cs1 (stereo unspecified), the IC50 [21] was 25 µM (inactive) and the IC50 [22] was > 69.5 µM (inactive).

With CC1(Cc2ccc(Cl)c(Cl)c2)C(=O)Nc2ccc(S(=O)(=O)NC3CCCCC3)cc21 (stereo unspecified) the IC50 [21] was 8.03 µM (active) and the IC50 [22] was > 69.5 µM (inactive).

For COc1cc(OC)cc(C(=O)N/N=C/c2ccc(OC)c(COc3ccc4ccccc4c3)c2)c1, the IC50 [10] was > 94.1 µM (inactive).

In the case of C[C@H](CO)N1C[C@H](C)[C@H](CN(C)C(=O)NC2CCCCC2)Oc2cc(C#Cc3ccc(F)cc3)ccc2S1(=O)=O, the AC50 [23] is reported as 7.83 µM (active) and the AC50 [20] is reported as 12.8 µM (active).
